Test results as given in patent US11560376B2, “Amino acid compounds and methods of use” (Pliant Therapeutics, Inc., priority 2018, dated 2023).

target: recombinant human integrin αvβ6 (Homo sapiens (Human), UniProt P06756+P18564); assay: Solid phase integrin αvβ6 binding assay; settings: TGFβ1 LAP as ligand, IC50 presented in four ranges, read-out: αvβ6 Inhibition IC50 (nM) - range
Procedure: (§1) Microplates were coated with recombinant human integrin αvβ6 (2 μg/mL) in PBS (100 μL/well 25° C., overnight). The coating solution was removed, washed with wash buffer (0.05% Tween 20; 0.5 mM MnCl2; in 1×TBS). The plate was blocked with 200 μL/well of Block Buffer (1% BSA; 5% sucrose; 0.5 mM MnCl2; in 1×TBS) at 37° C. for 2 h. Dilutions of testing compounds and recombinant TGFβ1 LAP (0.67 μg/mL) in binding buffer (0.05% BSA; 2.5% sucrose; 0.5 mM MnCl2; in 1×TBS) were added. The plate was incubated for 2 hours at 25° C., washed, and incubated for 1 hour with Biotin-Anti-hLAP. Bound antibody was detected by peroxidase-conjugated streptavidin. The IC50 values for testing compounds were calculated by a four-parameter logistic regression.
The compounds tested were compound samples prepared according to procedures described in the Synthetic Examples section, with the stereochemical purity as indicated in the Examples.
as §1, with “A third series of exemplary compounds was selected for testing in the solid phase integrin αvβ6 binding assay. The compounds tested were compound samples prepared according to procedures described in the Synthetic Examples section, with the stereochemical purity as indicated in the Examples. As in Example B1, microplates” for “Microplates”

Chain of recombinant human integrin αvβ6 (P06756 31-992): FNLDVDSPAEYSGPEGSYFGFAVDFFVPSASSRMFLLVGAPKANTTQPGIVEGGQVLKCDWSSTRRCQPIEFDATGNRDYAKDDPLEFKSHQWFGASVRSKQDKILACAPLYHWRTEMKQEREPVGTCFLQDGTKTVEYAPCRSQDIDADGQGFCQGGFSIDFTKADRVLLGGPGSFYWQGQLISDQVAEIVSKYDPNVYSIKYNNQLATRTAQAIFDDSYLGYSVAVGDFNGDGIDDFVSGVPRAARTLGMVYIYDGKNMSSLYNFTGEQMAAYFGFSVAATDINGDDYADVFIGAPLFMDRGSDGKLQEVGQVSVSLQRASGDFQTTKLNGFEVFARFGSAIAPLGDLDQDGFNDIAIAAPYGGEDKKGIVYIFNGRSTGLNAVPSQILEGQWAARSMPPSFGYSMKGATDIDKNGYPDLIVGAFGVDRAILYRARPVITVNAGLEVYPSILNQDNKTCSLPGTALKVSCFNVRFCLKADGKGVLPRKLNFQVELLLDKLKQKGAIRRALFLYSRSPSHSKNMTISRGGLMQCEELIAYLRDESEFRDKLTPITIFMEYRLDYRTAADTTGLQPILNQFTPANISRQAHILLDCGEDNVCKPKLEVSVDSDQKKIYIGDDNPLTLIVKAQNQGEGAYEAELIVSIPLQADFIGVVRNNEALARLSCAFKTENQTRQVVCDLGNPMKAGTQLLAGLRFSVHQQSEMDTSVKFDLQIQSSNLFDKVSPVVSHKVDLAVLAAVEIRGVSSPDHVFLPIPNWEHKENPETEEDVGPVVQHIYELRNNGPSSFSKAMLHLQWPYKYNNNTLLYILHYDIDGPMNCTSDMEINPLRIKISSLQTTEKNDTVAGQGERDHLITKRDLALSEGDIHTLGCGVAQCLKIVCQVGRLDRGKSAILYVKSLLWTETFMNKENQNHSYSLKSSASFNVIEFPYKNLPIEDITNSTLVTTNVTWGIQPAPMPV
Chain of recombinant human integrin αvβ6 (P18564 22-707): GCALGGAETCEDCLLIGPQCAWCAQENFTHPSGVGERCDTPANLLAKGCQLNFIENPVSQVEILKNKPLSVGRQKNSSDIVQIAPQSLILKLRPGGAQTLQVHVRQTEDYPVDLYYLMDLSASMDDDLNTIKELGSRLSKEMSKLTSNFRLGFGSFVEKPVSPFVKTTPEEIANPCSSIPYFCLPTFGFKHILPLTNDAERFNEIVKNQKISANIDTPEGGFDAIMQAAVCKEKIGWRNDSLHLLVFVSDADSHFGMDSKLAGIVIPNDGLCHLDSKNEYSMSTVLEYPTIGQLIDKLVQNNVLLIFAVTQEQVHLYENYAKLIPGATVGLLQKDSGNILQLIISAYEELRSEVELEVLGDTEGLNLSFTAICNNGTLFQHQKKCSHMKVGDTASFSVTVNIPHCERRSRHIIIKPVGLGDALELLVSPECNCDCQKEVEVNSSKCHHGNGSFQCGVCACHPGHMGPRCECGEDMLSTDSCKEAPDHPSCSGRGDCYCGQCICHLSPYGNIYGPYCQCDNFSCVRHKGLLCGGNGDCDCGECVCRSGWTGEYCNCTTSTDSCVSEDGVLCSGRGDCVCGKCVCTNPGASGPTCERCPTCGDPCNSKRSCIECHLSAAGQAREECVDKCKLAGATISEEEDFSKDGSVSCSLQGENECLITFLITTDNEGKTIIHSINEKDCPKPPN

SMILES | IC50
COC[C@@H](F)CN(CCCCc1ccc2c(n1)NCCC2)CC[C@H](Nc1ccncn1)C(=O)O [Compound 127, (S)-4-(((S)-2-fluoro-3-methoxypropyl) (4-(5,6,7,8-tetrahydro-1,8-naphthyridin-2-yl)butyl)amino)-2-(pyrimidin-4-ylamino) butanoic acid] | 250 to 1000 nM
O=C(O)[C@H](CCN(CCCCc1ccc2c(n1)NCCC2)CCC(F)F)Nc1ncc(C2CC2)cn1 [Compound 135, (S)-2-((5-cyclopropylpyrimidin-2-yl)amino)-4-((3,3-difluoropropyl) (4-(5,6,7,8-tetrahydro-1,8-naphthyridin-2-yl)butyl)amino) butanoic acid] | 50 to 250 nM
Cn1ncc2c(N[C@@H](CCN(CCCCc3ccc4c(n3)NCCC4)CCS(C)(=O)=O)C(=O)O)ncnc21 [Compound 101, (S)-2-((1-methyl-1H-pyrazolo[3,4-d]pyrimidin-4-yl)amino)-4-((2-(methylsulfonyl)ethyl) (4-(5,6,7,8-tetrahydro-1,8-naphthyridin-2-yl)butyl)amino) butanoic acid] | 50 to 250 nM
O=C(O)[C@H](CCN(CCCCc1ccc2c(n1)NCCC2)C1CC1)Nc1ccncn1 [Compound 2, (S)-4-(cyclopropyl(4-(5,6,7,8-tetrahydro-1,8-naphthyridin-2-yl)butyl)amino)-2-(pyrimidin-4-ylamino) butanoic acid] | 250 to 1000 nM
O=C(O)[C@H](CCN(CCCCc1ccc2c(n1)NCCC2)CCC(F)F)Nc1ncc(Br)cn1 [Compound 131, (S)-2-((5-bromopyrimidin-2-yl)amino)-4-((3,3-difluoropropyl) (4-(5,6,7,8-tetrahydro-1,8-naphthyridin-2-yl)butyl)amino) butanoic acid] | 50 to 250 nM
COC[C@@H](F)CN(CCCCc1ccc2c(n1)NCCC2)CC[C@H](Nc1ncc(C#N)cn1)C(=O)O [Compound 84, (S)-2-((5-cyanopyrimidin-2-yl)amino)-4-(((S)-2-fluoro-3-methoxypropyl) (4-(5,6,7,8-tetrahydro-1,8-naphthyridin-2-yl)butyl)amino) butanoic acid] | 250 to 1000 nM
CO[C@H](C)CN(CCCCc1ccc2c(n1)NCCC2)CC[C@H](Nc1ncncc1-c1ccccc1)C(=O)O [Compound 81, (S)-4-(((R)-2-methoxypropyl) (4-(5,6,7,8-tetrahydro-1,8-naphthyridin-2-yl)butyl)amino)-2-((5-phenylpyrimidin-4-yl)amino) butanoic acid] | < 50 nM
